In PubChem BioAssay AID196 (DTP/NCI, 2004):
“And” between values parts separate entries of the source, which are not always exact repeats. Identical values can stand only once. Inconclusive results and toxic doses are left out.

System: BDF1 mice, intracerebral B16 melanoma, median survival T/C
Test: NCI In Vivo Anticancer Drug Screen. Data for tumor model B16 Melanoma (intracerebral) in B6D2F1 (BDF1) mice
Settings: endpoint: median survival time, higher = longer survival
Protocol: The antitumor activity of compounds was measured in mice bearing transplantable tumors. Survival or tumor size were measured and the results are expressed as the measurement made in the treated group (T) divided by the measurement made in the vehicle treated control group (C). The tumor model used in this assay is B16 Melanoma (intracerebral) in B6D2F1 (BDF1) mice

CCC(=O)O[C@H]1CC[C@H]2[C@@H]3CCC4=CC(=O)CC[C@]4(C)[C@H]3CC[C@]12C
T/C (dose: 8.0 mg/kg/injection, schedule: Q01DX009 (ip), vehicle: Klucel (hydroxypropylcellulose) (HPC)): 99 % of control
T/C (dose: 16.0 mg/kg/injection, schedule: Q01DX009 (ip), vehicle: Klucel (hydroxypropylcellulose) (HPC)): 116 % of control
T/C (dose: 32.0 mg/kg/injection, schedule: Q01DX009 (ip), vehicle: Klucel (hydroxypropylcellulose) (HPC)): 111 % of control
T/C (dose: 64.0 mg/kg/injection, schedule: Q01DX009 (ip), vehicle: Klucel (hydroxypropylcellulose) (HPC)): 99 % of control
T/C (dose: 128.0 mg/kg/injection, schedule: Q01DX009 (ip), vehicle: Klucel (hydroxypropylcellulose) (HPC)): 123 % of control
T/C (dose: 256.0 mg/kg/injection, schedule: Q01DX009 (ip), vehicle: Klucel (hydroxypropylcellulose) (HPC)): 97 % of control
T/C (dose: 512.0 mg/kg/injection, schedule: Q01DX009 (ip), vehicle: Klucel (hydroxypropylcellulose) (HPC)): 104 % of control

NC(C/[N+]([O-])=N/O)C(=O)O (stereo not drawn)
T/C (dose: 3.5 mg/kg/injection, schedule: Q01DX009 (ip), vehicle: saline): 97 % of control
T/C (dose: 7.0 mg/kg/injection, schedule: Q01DX009 (ip), vehicle: saline): 87 % of control
T/C (dose: 12.5 mg/kg/injection, schedule: Q01DX009 (ip), vehicle: Klucel (hydroxypropylcellulose) (HPC)): 107 % of control
T/C (dose: 14.0 mg/kg/injection, schedule: Q01DX009 (ip), vehicle: saline): 89 % of control
T/C (dose: 25.0 mg/kg/injection, schedule: Q01DX009 (ip), vehicle: Klucel (hydroxypropylcellulose) (HPC)): 100 % of control
T/C (dose: 56.25 mg/kg/injection, schedule: Q01DX009 (ip), vehicle: saline): 101 % of control

Cc1ccc2c(c1)Sc1ccc(N=NN(C)C)cc1N2C
T/C (dose: 6.25 mg/kg/injection, schedule: Q01DX009 (ip), vehicle: other): 101 % of control
T/C (dose: 12.5 mg/kg/injection, schedule: Q01DX009 (ip), vehicle: other): 116 % of control
T/C (dose: 25.0 mg/kg/injection, schedule: Q01DX009 (ip), vehicle: other): 98 % of control
T/C (dose: 50.0 mg/kg/injection, schedule: Q01DX009 (ip), vehicle: other): 116 % of control
T/C (dose: 100.0 mg/kg/injection, schedule: Q01DX009 (ip), vehicle: other): 112 % of control

NC(Cc1ccc(N(CCCl)CCCl)cc1)C(=O)O (stereo not drawn)
T/C (dose: 2.0 mg/kg/injection, schedule: Q01DX009 (ip), vehicle: water): 120 % of control

CCN(CC)CCCC(C)Nc1c2ccc(Cl)cc2nc2ccc(OC)cc12 (stereo not drawn)
T/C (dose: 1.0 mg/kg/injection, schedule: Q01DX009 (ip), vehicle: saline with Tween-80): 96 % of control
T/C (dose: 2.0 mg/kg/injection, schedule: Q01DX009 (ip), vehicle: saline with Tween-80): 151 % of control
T/C (dose: 4.0 mg/kg/injection, schedule: Q01DX009 (ip), vehicle: saline with Tween-80): 122 % of control
T/C (dose: 8.0 mg/kg/injection, schedule: Q01DX009 (ip), vehicle: saline with Tween-80): 105 % of control and 107 % of control
T/C (dose: 16.0 mg/kg/injection, schedule: Q01DX009 (ip), vehicle: saline with Tween-80): 105 % of control
T/C (dose: 32.0 mg/kg/injection, schedule: Q01DX009 (ip), vehicle: saline with Tween-80): 105 % of control
T/C (dose: 64.0 mg/kg/injection, schedule: Q01DX009 (ip), vehicle: saline with Tween-80): 112 % of control

O=CC(NC(=O)N(CCCl)N=O)C(O)C(O)C(O)CO (stereo not drawn)
T/C (dose: 1.0 mg/kg/injection, schedule: Q01DX009 (ip), vehicle: saline): 97 % of control
T/C (dose: 2.0 mg/kg/injection, schedule: Q01DX009 (ip), vehicle: saline): 99 % of control
T/C (dose: 4.0 mg/kg/injection, schedule: Q01DX009 (ip), vehicle: saline): 111 % of control
T/C (dose: 7.5 mg/kg/injection, schedule: Q01DX001 (ip), vehicle: saline with Tween-80): 92 % of control
T/C (dose: 8.0 mg/kg/injection, schedule: Q01DX009 (ip), vehicle: saline): 117 % of control
T/C (dose: 15.0 mg/kg/injection, schedule: Q01DX001 (ip), vehicle: saline with Tween-80): 119 % of control
T/C (dose: 17.8 mg/kg/injection, schedule: Q01DX001 (ip), vehicle: Klucel (hydroxypropylcellulose) (HPC)): 120 % of control
T/C (dose: 26.7 mg/kg/injection, schedule: Q01DX001 (ip), vehicle: Klucel (hydroxypropylcellulose) (HPC)): 118 % of control
T/C (dose: 30.0 mg/kg/injection, schedule: Q01DX001 (ip), vehicle: saline with Tween-80): 103 % of control

CC[n+]1c(-c2ccccc2)c2cc(N)ccc2c2ccc(N)cc21
T/C (dose: 6.0 mg/kg/injection, schedule: Q01DX005 (ip), vehicle: saline): 95 % of control
T/C (dose: 12.0 mg/kg/injection, schedule: Q01DX005 (ip), vehicle: saline): 104 % of control and 105 % of control and 109 % of control
T/C (dose: 24.0 mg/kg/injection, schedule: Q01DX005 (ip), vehicle: saline): 105 % of control
